The results in this text go back to ChEMBL document CHEMBL4004873, “SAR of amino pyrrolidines as potent and novel protein-protein interaction inhibitors of the PRC2 complex through EED binding” (Bioorg Med Chem Lett, 2017).

In data set [1] the target is T1, Polycomb protein EED (Homo sapiens, UniProt O75530). Description: Inhibition of OG(488) labeled probe binding to GST-tagged EED (unknown origin) after 1 hr by LanthaScreen TR-FRET assay. In general terms: Time-resolved FRET reads energy transfer from a long-lived donor to a nearby acceptor.
T1 sequence (O75530 whole entry): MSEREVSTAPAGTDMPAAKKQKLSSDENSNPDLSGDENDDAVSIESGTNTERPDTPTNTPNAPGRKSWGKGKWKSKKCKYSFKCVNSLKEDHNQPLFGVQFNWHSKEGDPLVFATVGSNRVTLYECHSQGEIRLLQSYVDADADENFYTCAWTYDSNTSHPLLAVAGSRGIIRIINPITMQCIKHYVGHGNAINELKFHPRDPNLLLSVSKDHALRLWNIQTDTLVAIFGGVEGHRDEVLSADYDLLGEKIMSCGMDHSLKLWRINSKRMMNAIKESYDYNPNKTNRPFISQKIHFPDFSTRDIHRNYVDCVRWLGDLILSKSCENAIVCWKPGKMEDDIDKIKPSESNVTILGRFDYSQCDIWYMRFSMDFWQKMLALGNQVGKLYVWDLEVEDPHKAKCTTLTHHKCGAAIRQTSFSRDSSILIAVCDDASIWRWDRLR
Data set [2] is described as follows: Intrinsic clearance in mouse liver microsomes at 0.5 uM by HPLC-MS/MS method. The following applies: read-out: CLH. It counts as ADME, microsome. (In general: Liver microsomes are a subcellular fraction often used to study metabolism.)
Data set [3] has as its target T1, Polycomb protein EED. As to the kind of experiment: Inhibition of EED in human OCILY19 cells assessed as reduction in H3K27 trymethylation measured after 6 days by alphaLISA method. Format: cell-based.
The target of data set [4] is T1, Polycomb protein EED. As to the kind of experiment: Inhibition of EED in human G401 cells assessed as reduction in H3K27 trymethylation measured after 6 days by alphaLISA method. Format: cell-based.
Data set [5] can be described thus: Permeability of the compound by PAMPA. Conditions: read-out: permeability. Format: physicochemical. For orientation: The PAMPA barrier holds no transporters, so it reflects passive diffusion.
In data set [6] the test system is Pfeiffer. Description: Antiproliferative activity against human Pfeiffer cells after 10 days by celltiter-glo luminescent cell viability Assay. The following applies: 240 h. It counts as functional, cell-based.
The subject of data set [7] is Liver. As to the kind of experiment: Unbound intrinsic clearance in mouse liver microsomes at 0.5 uM by HPLC-MS/MS method. Format: ADME, microsome.

Turning to `CN(C)[C@H]1CN([C@@H]2CCc3cccc(F)c32)C[C@@H]1c1cn(C)c2ccccc12`, the affinity in data set [1] corresponds to a Ki of 129 nM. Besides, in data set [2], the CLint scaled at 0.5 µM is above 1000 L/h/kg.

Take `CN(C)C(=O)c1cccc2c([C@H]3CN(Cc4c(F)cccc4Br)C[C@@H]3N(C)C)cn(C)c12`: the affinity in data set [1], expressed as Ki, was 23 nM.

Turning to `CN(C)[C@H]1CN([C@H]2CCc3cccc(F)c32)C[C@@H]1c1cn(C)c2ccccc12`, the affinity in data set [1], expressed as Ki, was 11 nM. Also, the figures for the IC50 in data set [3], in data set [4] and in data set [6] were 660 nM, 290 nM and 1100 nM, respectively. The CLint scaled at 0.5 µM in data set [2] was above 1000 L/h/kg. Further, the Papp in data set [5] is 1 to 3 ×10⁻⁶ cm/s.

`Cc1cccc(F)c1CN1C[C@H](c2cn(C)c3ccccc23)[C@@H](N(C)C)C1`: affinity in data set [1] was put at a Ki of 12 nM. Further, the half-inhibitory concentration (IC50) (in general, the concentration needed to halve the response being measured) in data set [3] amounted to 2400 nM; in data set [4], 2400 nM; in data set [6], 3300 nM. In addition, the CLint scaled at 0.5 µM in data set [2] was above 1000 L/h/kg. In addition, the Papp in data set [5] is 1 to 3 ×10⁻⁶ cm/s.

Consider `CN(C)[C@H]1CN([C@H]2COc3cccc(F)c32)C[C@@H]1c1cn(C)c2ccccc12`, for which the Ki (commonly the dissociation constant of the complex between target and ligand, obtained from inhibition or displacement) in data set [1] worked out at 610 nM.

Consider `CC(=O)N1CCN(c2ccc([C@H]3CN(C4CCc5cccc(F)c54)C[C@@H]3N(C)C)cc2)CC1` (mixture of isomers), for which the inhibitory constant (Ki) in data set [1] is 0.29 nM. Moreover, the values for the half-inhibitory concentration (IC50) in data set [3], in data set [4] and in data set [6] were 50 nM, 33 nM and 33 nM, respectively. In data set [7], this molecule registered a CL free of 220 L/h/kg.

In data set [1], `Cc1cccc(F)c1CN1C[C@H](c2cn(C)c3c(N4CCN(C)C(=O)C4)cccc23)[C@@H](N(C)C)C1` (mixture of isomers) came in with a Ki of 0.74 nM. For the same molecule, the values for the IC50 in data set [3], in data set [4] and in data set [6] were 100 nM, 190 nM and 98 nM, respectively.

In data set [1], `CN(C)[C@H]1CN(C2CCc3cccc(F)c32)C[C@@H]1C1CCN(c2ccc(C(N)=O)cn2)CC1` (mixture of isomers) returned a Ki of 0.45 nM. Besides, the figures for the IC50 in data set [3], in data set [4] and in data set [6] were 280 nM, 230 nM and 130 nM, respectively. The CL free in data set [7] came out at 120 L/h/kg.

`Cc1cccc(F)c1CN1C[C@H](c2cn(C)c3c(C(=O)N4CC(F)C4)cccc23)[C@@H](N(C)C)C1` (mixture of isomers): the inhibitory constant (Ki) in data set [1] is 1 nM. Besides, the results for the half-maximal inhibitory concentration (IC50) in data set [3], in data set [4] and in data set [6] were 180 nM, 31 nM and 65 nM, respectively. Besides, in data set [7], the CL free was 1100 L/h/kg.

Molecule `Cc1cccc(F)c1CN1C[C@H](c2ccc(N3CCN(c4ccccn4)CC3)cc2)[C@@H](N(C)C)C1` (racemic) had a Ki in data set [1] of 2.1 nM. In data set [7], the CL free stood at 9900 L/h/kg.

`CN(C)[C@H]1CN(Cc2nccn2C)C[C@@H]1c1cn(C)c2ccccc12` (racemic) came in with an inhibitory constant (Ki) in data set [1] above 50000 nM.

In data set [1], `CN(C)[C@H]1CN(Cc2c(F)cccc2Br)C[C@@H]1c1ccncc1` (racemic) gave an inhibition constant (Ki) of 49 nM.

On to `Cc1cccc(F)c1CN1C[C@H](c2ccc(-c3cnn(CC(N)=O)c3)cc2)[C@@H](N(C)C)C1` (racemic), for which, in data set [1], the inhibition constant (Ki) is 2.6 nM. In data set [7], this molecule came in with a CL free of 225 L/h/kg.

Molecule `Cc1cccc(F)c1CN1C[C@H](c2ccc(C3=CCN(C(=O)CS(C)(=O)=O)CC3)nc2)[C@@H](N(C)C)C1` (racemic) showed an inhibition constant (Ki) in data set [1] of 4.6 nM. In data set [7], the CL free came to 268 L/h/kg.

Turning to `Cc1cccc(F)c1CN1C[C@H](C2CCN(c3cnc(C(N)=O)cn3)CC2)[C@@H](N(C)C)C1` (racemic), the Ki in data set [1] is 0.65 nM.

The molecule `CN(C)[C@H]1CN([C@H]2CCc3ncccc32)C[C@@H]1c1cn(C)c2ccccc12` (racemic) had a Ki in data set [1] of 260 nM.

As to `COc1ccccc1CN1C[C@H](c2cn(C)c3ccccc23)[C@@H](N(C)C)C1` (racemic), the CLint scaled at 0.5 µM in data set [2] was above 1000 L/h/kg.

On to `CN(C)[C@H]1CN(Cc2c(F)cccc2Br)C[C@@H]1c1cn(C)c2ccccc12` (racemic), for which the affinity in data set [1] corresponds to a Ki of 13 nM. Further, the figures for the IC50 in data set [3], in data set [4] and in data set [6] were 8300 nM, 4100 nM and 9500 nM, respectively. Besides, in data set [2], the CLint scaled at 0.5 µM was above 1000 L/h/kg. For the same molecule, the Papp in data set [5] was 1 to 3 ×10⁻⁶ cm/s.

Molecule `Cc1cccc(F)c1CN1C[C@H](c2cn(CC(=O)N(C)C)c3ncccc23)[C@@H](N(C)C)C1` (racemic) had a Ki in data set [1] of 5.3 nM. Moreover, in data set [7], the CL free is 276 L/h/kg.

The molecule `Cc1cccc(F)c1CN1C[C@H](c2ccccc2)[C@@H](N(C)C)C1` (racemic) had a Ki in data set [1] of 56 nM. The molecule further showed a CL free in data set [7] of 1300 L/h/kg.

Take `CC(=O)N1CCN(c2ccc([C@H]3CN(Cc4c(C)cccc4F)C[C@@H]3N(C)C)cc2)CC1` (racemic): in data set [1], the affinity corresponds to a Ki of 2.6 nM. The same molecule gave a CL free in data set [7] of 170 L/h/kg.

In data set [1], `CCn1cc(CN2C[C@H](c3cn(C)c4ccccc34)[C@@H](N(C)C)C2)c(C)n1` (racemic) came in with a Ki above 50000 nM.

In data set [1], `CN(C)[C@H]1CN([C@H]2CCCc3ccccc32)C[C@@H]1c1cn(C)c2ccccc12` (racemic) returned an inhibition constant Ki of 78 nM.

In data set [1], `CN(C)[C@H]1CN(Cc2c(F)cccc2Br)C[C@@H]1c1ccccc1` (racemic) showed a Ki of 78 nM.

The molecule `CN(C)[C@H]1CN(Cc2c(F)cccc2Br)C[C@@H]1C1CCCCC1` (racemic) showed a Ki in data set [1] of 230 nM.

In data set [1], `CN(C)[C@H]1CN(Cc2c(F)cccc2Br)C[C@@H]1C1CC1` (racemic) yielded a Ki of 71 nM.

In turn, `CN(C)[C@H]1CN(Cc2ccn3ccnc3c2)C[C@@H]1c1cn(C)c2ccccc12` (racemic) showed an inhibition constant (Ki) in data set [1] above 50000 nM.

As for `CN(C)[C@H]1CN([C@H]2CCc3ccccc32)C[C@@H]1c1cn(C)c2ccccc12` (racemic), the affinity in data set [1] corresponds to a Ki of 45 nM.

`Cc1cccc(F)c1CN1C[C@H](c2ccc(C(=O)N(C)C)cc2)[C@@H](N(C)C)C1` (racemic) yielded an inhibition constant (Ki) in data set [1] of 18 nM. The same molecule yielded a CL free in data set [7] of 97 L/h/kg.

Take `CN(C)[C@H]1CN(Cc2c(F)cccc2Cl)C[C@@H]1c1cn(C)c2ccccc12` (racemic): the affinity in data set [1] corresponds to a Ki of 53 nM. For the same molecule, the IC50 in data set [3] was above 10000 nM; in data set [4], 6900 nM; in data set [6] it was 3300 nM. For the same molecule, the CLint scaled at 0.5 µM in data set [2] was above 1000 L/h/kg. The Papp in data set [5] lay within 1 to 3 ×10⁻⁶ cm/s.

Molecule `C[C@H]1CN(Cc2c(F)cccc2Br)C[C@@H]1N(C)C` (racemic) had a Ki in data set [1] of 380 nM.

`CN(C)[C@H]1CN(Cc2ccccc2)C[C@@H]1c1cn(C)c2ccccc12` (racemic) returned an inhibitory constant (Ki) in data set [1] of 1500 nM. Further, the CLint scaled at 0.5 µM in data set [2] is above 1000 L/h/kg.

For the molecule `CN(C)[C@H]1CN(Cc2ccccc2F)C[C@@H]1c1cn(C)c2ccccc12` (racemic), the inhibitory constant (Ki) in data set [1] was 330 nM. Also, the CLint scaled at 0.5 µM in data set [2] was above 1000 L/h/kg.

Regarding `Cc1ccc(F)c(CN2C[C@H](c3cn(C)c4ccccc34)[C@@H](N(C)C)C2)c1` (racemic), the affinity in data set [1], expressed as Ki, was 160 nM. Moreover, in data set [2], the CLint scaled at 0.5 µM is above 1000 L/h/kg.

In turn, `CN(C)[C@H]1CN(Cc2c(F)cccc2Br)C[C@@H]1C1CCOCC1` (racemic) registered a Ki in data set [1] of 59 nM.

As for `Cc1nc2ncccn2c1CN1C[C@H](c2cn(C)c3ccccc23)[C@@H](N(C)C)C1` (racemic), in data set [1], the inhibition constant (Ki) was above 50000 nM.
